According to article PMC9416494, “Cinnamaldehyde and Curcumin Prime Akt2 for Insulin-Stimulated Activation” (Nutrients, 2022):
Read-outs that look alike come from different tables or passages of the source.

Experiments:
Akt2 = experiment: cIEF immunoassay of Akt2 and p-Akt2 (S474) in primary human subcutaneous preadipocytes; assay type: cell-based; details: for change of Akt2 cIEF electropherogram versus untreated control / change of Akt2 cIEF electropherogram versus insulin alone / increase of p-Akt2 (S474) compared to insulin treatment alone / p-Akt2 (S474) induction: 30 min; for change of Akt2 cIEF electropherogram versus untreated control: insulin 100 nM; for change of Akt2 cIEF electropherogram versus untreated control / increase of p-Akt2 (S474) compared to insulin treatment alone / p-Akt2 (S474) induction: cinnamaldehyde 40 µM, curcumin 20 µM; for change of Akt2 cIEF electropherogram versus untreated control / p-Akt2 (S474) induction: okadaic acid 5 nM, PTP1Bi 4 µM; for change of Akt2 cIEF electropherogram versus insulin alone / increase of p-Akt2 (S474) compared to insulin treatment alone: together with insulin 100 nM; for p-Akt2 (S474) induction: treatment without added insulin (insulin itself 100 nM)
Procedure: (§1) Primary human subcutaneous preadipocytes were obtained from Zen-Bio (Cat. No. SP-F-1, Lot #L031219A, Durham, NC, USA) and maintained at 37 °C and 5% CO2 in growth medium comprising Minimum Essential Medium α (cat. no. 12571063, Thermo Fisher Scientific, Waltham, MA, USA) supplemented with 10% fetal bovine serum, 100 units/mL penicillin, and 100 µg/mL streptomycin. […] The donor was undergoing elective surgery and signed an Institutional Review Board validated donor consent form that specifically lists both the intended uses for non-clinical research and confirms the procedures for processing the samples are Standard Operating Procedure managed Good Laboratory Practices protocols in compliance with ethical regulations. All samples were collected and processed in the United States.
(§2) Existing growth media of primary human subcutaneous preadipocytes were replaced with new growth media premixed with treatment compounds and incubated at 37 °C and 5% CO2 for 30 min prior to the collection of total cell extracts. The final concentrations of treatment compounds were as follows: insulin (100 nM, Humulin R, Eli Lilly, Indianapolis, IN, USA), cinnamaldehyde (40 µM, cat. no. W228613, Sigma Aldrich, St. Louis, MO, USA), curcumin (20 µM, cat. no. C7727, Sigma Aldrich, St. Louis, MO, USA), okadaic acid (5 nM, cat. no. ab120375, Cambridge, MA, USA), and PTP1Bi (4 µM, cat. no. 15782, Cayman Chem, Ann Arbor, MI, USA). The concentrations of treatment compounds were selected based on their ability to induce maximal effects on the PTM profile of Akt2, which were experimentally determined.
(§3) Approximately one million cells were incubated on ice for 10 min with 60 µL of lysis buffer (cat. no. 040-764, ProteinSimple, Santa Clara, CA, USA), sonicated 4 times for 5 s each, mixed by rotation for 2 h at 4 °C, and centrifuged at 12,000 rpm in an Eppendorf 5430R microfuge for 20 min at 4 °C. The supernatant was collected as the cell lysate. The total protein concentration in the cell lysate was determined with a Bradford protein assay and adjusted to a final concentration of 0.3 µg/µL with separation gradients (cat. no. Premix G2, pH 5–8, ProteinSimple, Santa Clara, CA, USA) for charge-based cIEF immunoassays.
(§4) Cell lysates in separation gradients were loaded into 384-well assay plates (cat. no. 040-663, ProteinSimple, Santa Clara, CA, USA), which were preloaded with primary and secondary antibodies and chemiluminescent substrates. Charge-based protein separation and detection in individual capillaries were performed using the default protocols of the NanoPro 1000 system (ProteinSimple, Santa Clara, CA, USA). HSP70 was used as the loading control. All cIEF immunoassays were performed in triplicate for each protein, and triplicate experiments were performed for each treatment condition, producing nine repeated measurements per protein analyte.
(§5) Protein abundance was quantified using the Compass software from ProteinSimple (Santa Clara, CA, USA) and normalized with that of HSP70 for cIEF immunoassays or β-actin for capillary Western assays. HSP70 and β-actin served as loading controls.

pan-Akt [1] = experiment: cIEF immunoassay of pan-Akt phosphoisoforms in primary human subcutaneous preadipocytes; assay type: cell-based; details: 30 min, versus untreated control
Procedure: as §1, §2, §3, §4, §5

Akt1 = experiment: cIEF immunoassay of Akt1 in primary human subcutaneous preadipocytes; assay type: cell-based; details: for effect on Akt1 cIEF electropherogram: 30 min; for effect on insulin-stimulated phosphorylation of Akt1: with insulin, cIEF of p-Akt1 (S473) and standard Western
Procedure: as §1, §2, §3, §4, §5

PP2A = target: T1, PP2A (Homo sapiens, UniProt P67775); experiment: Ser/Thr phosphatase assay (malachite green), recombinant PP2A; assay type: biochemical
T1 construct: purchased Cayman Chem 10011237
T1 sequence (P67775 1-308 limits assumed): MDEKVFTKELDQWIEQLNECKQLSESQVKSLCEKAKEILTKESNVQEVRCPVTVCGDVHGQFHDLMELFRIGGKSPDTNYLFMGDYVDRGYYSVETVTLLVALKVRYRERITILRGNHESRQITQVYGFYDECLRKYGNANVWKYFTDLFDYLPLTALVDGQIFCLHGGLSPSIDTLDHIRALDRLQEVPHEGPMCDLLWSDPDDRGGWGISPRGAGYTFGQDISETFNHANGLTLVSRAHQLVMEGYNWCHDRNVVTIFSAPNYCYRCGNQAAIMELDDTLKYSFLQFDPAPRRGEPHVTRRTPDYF
Procedure: (§6) Ser/Thr phosphatase assay kit (cat. no. 17-127, Millipore, Temecula, CA, USA) was used to detect PP2A activity by dephosphorylation of the phosphopeptide R-K-pT-I-R-R using malachite green detection. Likewise, a protein tyrosine phosphatase assay kit (cat. no. 17-125, Millipore, Burlington, MA, USA) was used to detect PTP1B activity by dephosphorylation of the phosphopeptide R-R-L-I-E-D-A-E-pY-A-A-R-G using malachite green detection. Experimental procedures were performed according to the manufacturer’s protocols. Recombinant PP2A (cat. no. 10011237, Cayman Chem, Ann Arbor, MI, USA) and PTP1B (cat. no. 10010896, Cayman Chem, Ann Arbor, MI, USA) were used. Dephosphorylation reactions were performed at room temperature for 30 min in the presence of serially diluted okadaic acid, PTP1Bi, cinnamaldehyde, or curcumin. The reactions were terminated by the addition of […] malachite green solution and allowed color development to proceed for 15 min at room temperature. Phosphatase activities were measured using absorbance at 650 nm in a microtiter plater reader (Synergy 2, BioTek, Winooski, VT, USA).

PTP1B = target: T2, PTP1B (Homo sapiens, UniProt P18031); experiment: Protein tyrosine phosphatase assay (malachite green), recombinant PTP1B; assay type: biochemical; details: 30 min, room temperature, read-out: IC50, PTP1B inhibition
T2 construct: purchased Cayman Chem 10010896
T2 sequence (P18031 1-321 limits assumed): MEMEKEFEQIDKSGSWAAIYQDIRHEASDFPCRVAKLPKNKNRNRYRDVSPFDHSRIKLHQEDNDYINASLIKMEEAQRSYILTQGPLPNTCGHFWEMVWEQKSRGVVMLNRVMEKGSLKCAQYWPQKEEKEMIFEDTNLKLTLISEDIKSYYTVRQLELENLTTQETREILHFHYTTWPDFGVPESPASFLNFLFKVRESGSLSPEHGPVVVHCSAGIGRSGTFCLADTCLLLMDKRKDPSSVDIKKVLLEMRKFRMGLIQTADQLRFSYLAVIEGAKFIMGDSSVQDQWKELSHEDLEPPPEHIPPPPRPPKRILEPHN
Procedure: as §6

Akt3 = experiment: cIEF immunoassay of Akt3 in primary human subcutaneous preadipocytes; assay type: cell-based; details: for effect on Akt3 cIEF electropherogram: 30 min; for effect on insulin-stimulated phosphorylation of Akt3: with insulin
Procedure: as §1, §2, §3, §4, §5

ERK1/2 = experiment: cIEF immunoassay of ERK1/2 phosphorylation; assay type: cell-based, human; details: following treatment
Procedure: as §2
as §4, with “All cIEF immunoassays were performed in triplicate for each protein, and triplicate experiments were performed for each treatment condition, producing nine repeated measurements per protein analyte.” left out

pan-Akt [2] = experiment: Capillary Western immunoassay of p-Akt in primary human subcutaneous preadipocytes; assay type: cell-based; details: insulin 30 min
Procedure: as §1, §2
The total protein concentration in the cell lysate was determined with a Bradford protein assay and adjusted to a final concentration of 0.4 µg/µL with denaturing buffers (cat. no. PS-ST01EZ or PS-ST03EZ, ProteinSimple, Santa Clara, CA, USA) for size-based Western immunoassays. […]
Protein abundance was quantified using the Compass software from ProteinSimple (Santa Clara, CA, USA) and normalized with that of HSP70 for cIEF immunoassays or β-actin for capillary Western assays. […]

[3] = recombinant PP2A, 30 min, room temperature, read-out: IC50, PP2A inhibition

In the case of `O=c1cc(N2CCOCC2)oc2c(-c3ccccc3)cccc12` [LY294002, reference compound], the “effect on cinnamaldehyde or curcumin-induced phosphorylation of Akt2” value (Akt2; PI3K inhibitor with cinnamaldehyde or curcumin) is reported as “unable to inhibit” and the “effect on insulin-stimulated phosphorylation of Akt2” value (Akt2; PI3K inhibitor with insulin) is reported as “abrogates”.

In the case of `O=C/C=C/c1ccccc1` [cinnamaldehyde], the “abundance of p-Akt (S124) at pI 5.74” value (pan-Akt [1]) is reported as “increased the abundance”, the “abundance of p-Akt (S246) at pI 5.74” value (pan-Akt [1]) is reported as “increased the abundance” and the “abundance of p-Akt (Y475) at pI 5.74” value (pan-Akt [1]) is reported as “increased the abundance”. For the same compound, the “effect on p-Akt (T308)” value (pan-Akt [1]) was “no observable effect”, the “p-Akt (T450) phosphorylation” value (pan-Akt [1]) was “increased phosphorylation at the T450 residue” and the “effect on Akt1 cIEF electropherogram” value (Akt1) was “neither cinnamaldehyde or curcumin had any observable effect”. The “effect on insulin-stimulated phosphorylation of Akt1” value (Akt1) was “promote insulin-stimulated phosphorylation of Akt1”, the IC50 (PP2A; [3]) was ~40 µM and the IC50 (PTP1B) was ~4 µM. For the same compound, the “change of Akt2 cIEF electropherogram versus untreated control” value (Akt2) was “new peak at pI 5.41”, the “change of Akt2 cIEF electropherogram versus insulin alone” value (Akt2) was “induced the appearance of a new Akt2 isoform at pI 5.15” and the “increase of p-Akt2 (S474) compared to insulin treatment alone” value (Akt2) was “approximately 3.5 fold”. The “p-Akt2 (S474) induction” value (Akt2) was “Neither untreated control preadipocytes or preadipocytes treated with cinnamaldehyde or curcumin had a detectable level”, the “effect on Akt3 cIEF electropherogram” value (Akt3) was “neither cinnamaldehyde or curcumin had any observable effect” and the “effect on insulin-stimulated phosphorylation of Akt3” value (Akt3) was “no observable effect”. For the same compound, the ERK1/2 phosphorylation (ERK1/2) was “increased ERK1/2 phosphorylation”.

`COc1cc(/C=C/C(=O)CC(=O)/C=C/c2ccc(O)c(OC)c2)ccc1O` [curcumin] was tested, and the “abundance of p-Akt (S124) at pI 5.74” value (pan-Akt [1]) was “increased the abundance”, the “abundance of p-Akt (S246) at pI 5.74” value (pan-Akt [1]) was “increased the abundance” and the “abundance of p-Akt (Y475) at pI 5.74” value (pan-Akt [1]) was “increased the abundance”. For the same compound, the “effect on p-Akt (T308)” value (pan-Akt [1]) was “no observable effect”, the “p-Akt (T450) phosphorylation” value (pan-Akt [1]) was “increased phosphorylation at the T450 residue” and the “effect on Akt1 cIEF electropherogram” value (Akt1) was “neither cinnamaldehyde or curcumin had any observable effect”. For the same compound, the “effect on insulin-stimulated phosphorylation of Akt1” value (Akt1) was “promote insulin-stimulated phosphorylation of Akt1”, the IC50 (PP2A; [3]) was ~20 µM and the IC50 (PTP1B) was ~25 µM. For the same compound, the “change of Akt2 cIEF electropherogram versus untreated control” value (Akt2) was “new peak at pI 5.41”, the “change of Akt2 cIEF electropherogram versus insulin alone” value (Akt2) was “induced the appearance of a new Akt2 isoform at pI 5.15” and the “increase of p-Akt2 (S474) compared to insulin treatment alone” value (Akt2) was “approximately 3.5 fold”. The “p-Akt2 (S474) induction” value (Akt2) was “Neither untreated control preadipocytes or preadipocytes treated with cinnamaldehyde or curcumin had a detectable level”, the “effect on Akt3 cIEF electropherogram” value (Akt3) was “neither cinnamaldehyde or curcumin had any observable effect” and the “effect on insulin-stimulated phosphorylation of Akt3” value (Akt3) was “no observable effect”. For the same compound, the ERK1/2 phosphorylation (ERK1/2) was “increased ERK1/2 phosphorylation”.

For `C=C1[C@@H](O)[C@@H]2O[C@]3(CC[C@H](/C=C/[C@@H](C)[C@@H]4CC(C)=C[C@@]5(O[C@H](C[C@@](C)(O)C(=O)O)CC[C@H]5O)O4)O3)CC[C@H]2O[C@@H]1[C@@H](O)C[C@H](C)[C@H]1O[C@@]2(CCCCO2)CC[C@H]1C` [okadaic acid, reference compound], the IC50 (PP2A) was ~0.0005 µM, the “change of Akt2 cIEF electropherogram versus untreated control” value (Akt2) was “induced the appearance of a new Akt2 isoform at pI 5.20” and the “p-Akt2 (S474) induction” value (Akt2) was “Neither okadaic acid nor PTP1Bi treatment individually was capable of inducing”.

With insulin [reference compound] the “effect on Akt1 cIEF electropherogram” value (Akt1) was “no observable effect”, the “abundance of p-Akt (S473)” value (pan-Akt [2]) was “increased the abundance” and the “abundance of p-Akt (T308)” value (pan-Akt [2]) was “increased the abundance”. The “abundance of p-Akt (T450)” value (pan-Akt [2]) was “increased the abundance”, the “change of Akt2 cIEF electropherogram versus untreated control” value (Akt2) was “pI 5.20 and 5.30” and the “p-Akt2 (S474) induction” value (Akt2) was “induced the appearance of p-Akt2 (S474)”. The “effect on Akt3 cIEF electropherogram” value (Akt3) was “induced the appearance of new Akt2 and Akt3 isoforms at low pI values”.
